13 compounds from US20100256104A1, “NOVEL AMIDE COMPOUNDS” (ASTRAZENECA R&D, priority 2009, published 2010) can be followed below.

The target in the assay is T1, recombinant human GR (Homo sapiens, UniProt P04150).
T1 construct: purchased Panvera/Invitrogen P2812 (kit P2893)
T1 sequence (P04150 1-777): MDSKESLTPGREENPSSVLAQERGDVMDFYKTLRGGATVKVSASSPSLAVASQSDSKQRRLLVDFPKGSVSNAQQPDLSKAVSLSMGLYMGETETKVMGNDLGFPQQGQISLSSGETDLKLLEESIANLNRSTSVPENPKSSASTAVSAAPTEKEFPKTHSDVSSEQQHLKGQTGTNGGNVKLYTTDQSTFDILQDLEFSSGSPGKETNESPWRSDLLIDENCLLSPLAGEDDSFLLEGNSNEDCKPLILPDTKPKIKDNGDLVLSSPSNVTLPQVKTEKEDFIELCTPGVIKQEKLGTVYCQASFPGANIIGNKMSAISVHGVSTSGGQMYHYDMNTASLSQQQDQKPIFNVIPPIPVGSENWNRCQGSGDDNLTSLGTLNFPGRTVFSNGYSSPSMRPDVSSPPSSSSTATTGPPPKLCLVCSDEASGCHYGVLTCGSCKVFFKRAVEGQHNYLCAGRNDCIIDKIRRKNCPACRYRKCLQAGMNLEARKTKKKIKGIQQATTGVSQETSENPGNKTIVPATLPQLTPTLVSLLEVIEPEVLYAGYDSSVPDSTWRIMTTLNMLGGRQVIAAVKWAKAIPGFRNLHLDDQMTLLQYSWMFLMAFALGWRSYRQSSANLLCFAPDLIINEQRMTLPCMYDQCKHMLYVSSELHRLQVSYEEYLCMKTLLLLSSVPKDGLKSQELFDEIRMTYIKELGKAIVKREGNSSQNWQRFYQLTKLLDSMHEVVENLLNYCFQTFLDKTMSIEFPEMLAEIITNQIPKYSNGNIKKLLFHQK
As to the kind of experiment: Human Glucocorticoid Receptor (GR) Assay, fluorescence polarization competition with GS Red tracer. The settings on record: 2 hours at room temperature, 100% control 10 μM Dexamethasone, XLfit model 205, read-out: Inhibition of GR binding, IC50. Summed up: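 Fluorescence polarization competition: recombinant human GR with GS Red tracer, stabilizing peptide and DTT in potassium phosphate/sodium molybdate/EDTA buffer. 2 h in dark at room temperature, read at ex 530/em 590 nm. Controls: DMSO (0%) and 10 μM dexamethasone (100%).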
With `CCC(=O)O[C@]1(C(=O)SCF)CC[C@H]2[C@@H]3CCC4=Cc5c(cnn5-c5cccc(C(=O)NC)c5)C[C@]4(C)[C@@]3(F)[C@@H](O)C[C@@]21C` [Example 33, (1R,3aS,3bS,10aS, 10bR,11S,12aS)-10b-fluoro-1-{[(fluoromethyl)sulfanyl]carbonyl}-11-hydroxy-10a,12a-dimethyl-7[3-(methylcarbamoyl)phenyl]-1,2,3,3a,3b,4,5,7,10, 10a,10b,11,12,12a-tetradecahydrocyclo-penta[5,6]naphtho [1,2-f]indazol-1-yl propanoate], the IC50 – broadly, the point on the concentration scale where inhibition reaches its midpoint – amounted to 5.2 nM. The figure for `CCC(=O)O[C@]1(C(=O)SCF)CC[C@H]2[C@@H]3CCC4=Cc5c(cnn5-c5cccc(C(=O)N(C)CC(N)=O)c5)C[C@]4(C)[C@@]3(F)[C@@H](O)C[C@@]21C` [Example 34, (1R,3aS,3bS,10aS, 10bR,11S,12aS)-7-{3-[(2-amino-2-oxoethyl)(methyl)carbamoyl]phenyl}-10b-fluoro-1-{[(fluoromethyl)sulfanyl]carbonyl}-11-hydroxy-10a,12a-dimethyl-1,2,3,3a,3b,4,5,7,10, 10a,10b,11,12,12a-tetradecahydrocyclo-penta[5,6]naphtho [1,2-f]indazol-1-yl propanoate] is 3.8 nM. For the compound `CCC(=O)O[C@]1(C(=O)SCF)CC[C@H]2[C@@H]3CCC4=Cc5c(cnn5-c5cccc(C(=O)N[C@@H](C)C(N)=O)c5)C[C@]4(C)[C@@]3(F)[C@@H](O)C[C@@]21C` [Example 35, (1R,3aS,3bS,10aS, 10bR,11S,12aS)-7-(3-{[(1S)-2-amino-1-methyl-2-oxoethyl]carbamoyl}phenyl)-10b-fluoro-1-{[(fluoromethyl)sulfanyl]carbonyl}-11-hydroxy-10a,12a-dimethyl-1,2,3,3a,3b,4,5,7,10,10a, 10b,11,12,12a-tetradecahydrocyclo-penta[5,6]naphtho [1,2-f]indazol-1-yl propanoate], the 50% inhibitory concentration (IC50) is 6.5 nM. For the compound `CCC(=O)O[C@]1(C(=O)SCF)CC[C@H]2[C@@H]3CCC4=Cc5c(cnn5-c5cccc(C(=O)NCC(=O)NC)c5)C[C@]4(C)[C@@]3(F)[C@@H](O)C[C@@]21C` [Example 36, (1R,3aS,3bS,10aS, 10bR,11S,12aS)-10b-fluoro-1-{[(fluoromethyl)sulfanyl]carbonyl}-11-hydroxy-10a,12a-dimethyl-7-(3-{[2-(methylamino)-2-oxoethyl]carbamoyl}phenyl)-1,2,3,3a,3b,4,5,7,10,10a, 10b,11,12,12a-tetradecahydrocyclo-penta[5,6]naphtho [1,2-f]indazol-1-yl propanoate], the IC50 is 0.84 nM.

As for `CCC(=O)O[C@]1(C(=O)SCF)CC[C@H]2[C@@H]3C[C@H](C)C4=Cc5c(cnn5-c5cccc(C(=O)NCC(N)=O)c5)C[C@]4(C)[C@H]3[C@@H](O)C[C@@]21C` [Example 37, (1R,3aS,3bS,5S,10aR, 10bS,11S,12aS)-7-{3-[(2-amino-2-oxoethyl)carbamoyl]phenyl}-1-{[(fluoromethyl)sulfanyl]carbonyl}-11-hydroxy-5,10a, 12a-trimethyl-1,2,3,3a,3b,4,5,7,10, 10a,10b,11,12,12a-tetradecahydrocyclo-penta[5,6]naphtho [1,2-f]indazol-1-yl propanoate], the IC50 came to 7.1 nM. Regarding `COCC(=O)O[C@]1(C(=O)SCF)CC[C@H]2[C@@H]3C[C@H](C)C4=Cc5c(cnn5-c5cccc(C(=O)NCC(N)=O)c5)C[C@]4(C)[C@H]3[C@@H](O)C[C@@]21C` [Example 38, (1R,3aS,3bS,5S, 10aR,10bS,11S,12aS)-7-{3-[(2-amino-2-oxoethyl)carbamoyl]phenyl}-1-{[(fluoromethyl)sulfanyl]carbonyl}-11-hydroxy-5,10a, 12a-trimethyl-1,2,3,3a,3b,4,5,7,10, 10a,10b,11,12,12a-tetradecahydrocyclo-penta[5,6]naphtho [1,2-f]indazol-1-yl methoxyacetate], the IC50 amounted to 8.3 nM. Take `C[C@]12Cc3cnn(-c4cccc(C(=O)NCc5cccnc5)c4)c3C=C1CC[C@@H]1[C@@H]2[C@@H](O)C[C@@]2(C)[C@H]1CC[C@]2(OC(=O)c1cocn1)C(=O)SCF` [Example 39, (1R,3aS,3bS,10aR, 10bS,11S,12aS)-1-{[(fluoromethyl)sulfanyl]carbonyl}-11-hydroxy-10a,12a-dimethyl-7-{3-[(pyridin-3-ylmethyl)carbamoyl]-phenyl}-1,2,3,3a,3b, 4,5,7,10,10a,- 10b,11,12,12a-tetradecahydro-cyclopenta[5,6]naphtho [1,2-f]indazol-1-yl 1,3-oxazole-4-carboxylate]: the IC50 is 2.4 nM. With `COCC(=O)O[C@]1(C(=O)SCF)CC[C@H]2[C@@H]3CCC4=Cc5c(cnn5-c5cccc(C(=O)N[C@@H]6CCOC6)c5)C[C@]4(C)[C@H]3[C@@H](O)C[C@@]21C` [Example 40, (1R,3aS,3bS,10aR, 10bS,11S,12aS)-1-{[(fluoromethyl)sulfanyl]carbonyl}-11-hydroxy-10a,12a-dimethyl-7-{3-[(3R)-tetrahydrofuran-3-ylcarbamoyl]phenyl}-1,2,3,3a,3b,4,5,7,10, 10a,10b,11,12,12a-tetradecahydrocyclo-penta[5,6]naphtho [1,2-f]indazol-1-yl methoxyacetate], the IC50 stood at 3 nM.

Turning to `CCC(=O)O[C@]1(C(=O)SCF)[C@H](C)C[C@H]2[C@@H]3CCC4=Cc5c(cnn5-c5cccc(C(=O)NCC(N)=O)c5)C[C@]4(C)[C@@]3(F)[C@@H](O)C[C@@]21C` [Example 41, (1R,2R,3aS,3bS, 10aS,10bR,11S,12aS)-7-{3-[(2-amino-2-oxoethyl)carbamoyl]phenyl}-10b-fluoro-1-{[(fluoromethyl)sulfanyl]carbonyl}-11-hydroxy-2,10a,12a-trimethyl-1,2,3,3a,3b,4,5,7,10, 10a,10b,11,12,12a-tetradecahydrocyclo-penta[5,6]naphtho [1,2-f]indazol-1-yl propanoate], the IC50 amounted to 1.2 nM. Turning to `CCC(=O)O[C@]1(C(=O)SCF)[C@H](C)C[C@H]2[C@@H]3CCC4=Cc5c(cnn5-c5cccc(C(=O)N6CCC[C@@H]6C(N)=O)c5)C[C@]4(C)[C@@]3(F)[C@@H](O)C[C@@]21C` [Example 42, (1R,2R,3aS,3bS, 10aS,10bR,11S,12aS)-7-(3-{[(2R)-2-carbamoyl-pyrrolidin-1-yl]carbonyl}phenyl)-10b-fluoro-1-{(fluoromethyl)sulfanyl] carbonyl}-11-hydroxy-2,10a,12a-trimethyl-1,2,3,3a,3b,4,5,7,10, 10a,10b,11,12,12a-tetradecahydrocyclo-penta[5,6]naphtho [1,2-f]indazol-1-yl propanoate], the IC50 is 4.4 nM. `CCC(=O)O[C@]1(C(=O)SCF)[C@H](C)C[C@H]2[C@@H]3CCC4=Cc5c(cnn5-c5cccc(C(=O)NCc6cccnc6)c5)C[C@]4(C)[C@@]3(F)[C@@H](O)C[C@@]21C` [Example 43, (1R,2R,3aS,3bS, 10aS,10bR,11S,12aS)-10b-fluoro-1-{[(fluoromethyl)sulfanyl]carbonyl}-11-hydroxy-2,10a,12a-trimethyl-7-{3-[(pyridin-3-ylmethyl)carbamoyl]phenyl}-1,2,3,3a,3b,4,5,7,10, 10a,10b,11,12,12a-tetradecahydrocyclo-penta[5,6]naphtho [1,2-f]indazol-1-yl propanoate]: the IC50 amounted to 1.9 nM. Turning to `CCC(=O)O[C@]1(C(=O)SCF)CC[C@H]2[C@@H]3CCC4=Cc5c(cnn5-c5cccc(C(=O)NCC(N)=O)c5)C[C@]4(C)[C@@]3(F)[C@@H](O)C[C@@]21C` [Example 44, (1R,3aS,3bS,10aS, 10bR,11S,12aS)-7-{3-[(2-amino-2-oxoethyl)carbamoyl]phenyl}-10b-fluoro-1-{[(fluoromethyl)sulfanyl]carbonyl}-11-hydroxy-10a,12a-dimethyl-1,2,3,3a,3b,4,5,7,10, 10a,10b,11,12,12a-tetradecahydrocyclo-penta[5,6]naphtho [1,2-f]indazol-1-yl propanoate], the IC50 was 2.2 nM. The figure for `COCC(=O)O[C@]1(C(=O)SCF)[C@H](C)C[C@H]2[C@@H]3CCC4=Cc5c(cnn5-c5cccc(C(=O)NCC(N)=O)c5)C[C@]4(C)[C@@]3(F)[C@@H](O)C[C@@]21C` [Example 45, (1R,2R,3aS,3bS, 10aS,10bR,11S,12aS)-7-{3-[(2-amino-2-oxoethyl)carbamoyl]phenyl}-10b-fluoro-1-{[(fluoromethyl)sulfanyl]carbonyl}-11-hydroxy-2,10a,12a-trimethyl-1,2,3,3a,3b,4,5,7,10, 10a,10b,11,12,12a-tetradecahydrocyclo-penta[5,6]naphtho [1,2-f]indazol-1-yl methoxyacetate] is 5.3 nM.
